Results: publication PMC2248166, “Quantitative peptide binding motifs for 19 human and mouse MHC class I molecules derived using positional scanning combinatorial peptide libraries” (Immunome Research, 2008)

Assays:
Format in all cases: binding
[1] = target: HLA B*5301 (Homo sapiens, UniProt P01889, A329T/A93T/A95T/C349S/D201E/D98Y/E176V/E187L/E204Q/E69T/G107R/I218V/K202T/L105A/L119I/N104I/Q94N/R106L/R155S/R180L/S101N/S121R/S35A/S48A/T118I/V127L/V306I/V36M/Y140S/Y91F)
[2] = target: H-2 D^b (Mus musculus, UniProt P01899)
Chain of H-2 D^b (P01887 21-119): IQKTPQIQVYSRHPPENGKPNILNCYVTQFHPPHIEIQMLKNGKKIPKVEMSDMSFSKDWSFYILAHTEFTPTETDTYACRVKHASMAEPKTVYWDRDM
Chain of H-2 D^b (P01899 25-362): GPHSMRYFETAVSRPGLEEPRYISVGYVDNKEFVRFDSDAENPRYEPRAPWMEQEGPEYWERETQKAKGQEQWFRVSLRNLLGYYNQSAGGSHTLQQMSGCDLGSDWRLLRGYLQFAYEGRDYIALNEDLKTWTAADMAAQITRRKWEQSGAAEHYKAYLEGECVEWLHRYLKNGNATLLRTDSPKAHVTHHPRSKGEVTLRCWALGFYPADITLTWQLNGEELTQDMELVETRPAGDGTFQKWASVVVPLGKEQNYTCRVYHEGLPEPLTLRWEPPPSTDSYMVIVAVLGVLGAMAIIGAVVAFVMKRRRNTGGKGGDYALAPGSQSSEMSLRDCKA

[3] = target: H-2 D^d (Mus musculus, UniProt P01900)
Chain of H-2 D^d (P01900 whole entry, looked up): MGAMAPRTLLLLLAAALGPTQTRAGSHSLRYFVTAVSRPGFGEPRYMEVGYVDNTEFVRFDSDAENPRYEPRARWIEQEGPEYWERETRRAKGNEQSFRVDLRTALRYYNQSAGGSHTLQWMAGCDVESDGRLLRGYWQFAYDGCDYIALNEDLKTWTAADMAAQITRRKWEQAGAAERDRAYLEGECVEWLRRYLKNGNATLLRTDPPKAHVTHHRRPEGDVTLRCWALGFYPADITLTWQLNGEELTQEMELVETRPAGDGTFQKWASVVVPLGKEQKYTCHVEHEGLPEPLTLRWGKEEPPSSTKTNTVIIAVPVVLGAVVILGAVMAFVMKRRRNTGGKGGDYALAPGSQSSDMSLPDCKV

[4] = target: HLA A*3201 (Homo sapiens, UniProt P04439, A270S/D101S/D185E/E176V/E277Q/F133L/G103R/G107R/G231S/H175R/I121M/I218V/I322F/K168Q/L105A/L300P/L318F/M331R/P208A/P217A/Q94H/R106L/R138Q/S129P/T104I/T323A/T345S/V100E/V321M/V358M); experiment: biochemical
[5] = target: HLA B*5802 (Homo sapiens, UniProt P01889, A329T/C349S/D201E/D98Y/E176V/E187L/E204Q/E69T/G107R/I218V/I90N/K202T/L105A/N104I/N87E/Q89R/Q94S/R106L/R155S/R180L/R86G/S101N/S121W/S35A/S48A/V127L/V306I/V36M/Y140S/Y91M)
[6] = target: HLA A*6802 (Homo sapiens, UniProt P04439, A269V/D140Y/D185E/E176V/E277Q/E87N/F33Y/G231S/I121R/I166T/I218V/L180W/L300P/L318F/N151K/P208A/P217A/Q86R/R138H/R169H/S129P/T345S/V36M)
[7] = target: HLA B*5801 (Homo sapiens, UniProt P01889, A329T/C349S/D201E/D98Y/E176V/E187L/E204Q/E69T/G107R/I218V/I90N/K202T/L105A/L119I/N104I/N87E/Q89R/Q94S/R106L/R155S/R180L/R86G/S101N/S121R/S35A/S48A/T118I/V127L/V306I/V36M/Y140S/Y91M)
[8] = target: HLA B*1503 (Homo sapiens, UniProt P01889, A329T/A93T/A95T/C349S/D201E/D98Y/E187L/E204Q/K202T/N87E/Q94N/R155S/R180L/S121R/S35A/V306I/V36M/Y140S/Y91S); experiment: biochemical
[9] = target: HLA B*3501 (Homo sapiens, UniProt P01889, A329T/A93T/A95T/C349S/D201E/D98Y/E176V/E187L/E204Q/E69T/I218V/K202T/L119I/Q94N/R155S/R180L/S121R/S35A/S48A/T118I/V127L/V306I/V36M/Y140S/Y91F)
[10] = target: HLA B*5401 (Homo sapiens, UniProt P01889, A329T/C349S/D138N/D201E/E176V/E187T/E204Q/E69G/I76V/K202T/L119W/R155S/R180L/S121T/S35A/S48A/V127L/V306I/V36M/Y140L)
[11] = target: H-2 K^d (Mus musculus, UniProt P01902)
Chain of H-2 K^d (P01887 21-119): as the sequence (P01887 21-119) above
Chain of H-2 K^d (P01902 22-368): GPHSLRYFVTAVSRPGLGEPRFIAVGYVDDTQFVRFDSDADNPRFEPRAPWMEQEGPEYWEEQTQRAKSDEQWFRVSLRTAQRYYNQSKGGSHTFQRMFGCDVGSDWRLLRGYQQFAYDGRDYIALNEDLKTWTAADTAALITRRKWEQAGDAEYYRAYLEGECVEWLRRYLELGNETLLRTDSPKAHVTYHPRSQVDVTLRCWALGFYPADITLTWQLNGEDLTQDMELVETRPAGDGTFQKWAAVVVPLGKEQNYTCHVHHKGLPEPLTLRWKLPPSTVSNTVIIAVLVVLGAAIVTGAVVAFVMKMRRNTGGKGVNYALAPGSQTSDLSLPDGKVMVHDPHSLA

[12] = target: H-2 K^k (Mus musculus, UniProt P04223)
Chain of H-2 K^k (P01887 21-119): as the sequence (P01887 21-119) above
Chain of H-2 K^k (P04223 22-369): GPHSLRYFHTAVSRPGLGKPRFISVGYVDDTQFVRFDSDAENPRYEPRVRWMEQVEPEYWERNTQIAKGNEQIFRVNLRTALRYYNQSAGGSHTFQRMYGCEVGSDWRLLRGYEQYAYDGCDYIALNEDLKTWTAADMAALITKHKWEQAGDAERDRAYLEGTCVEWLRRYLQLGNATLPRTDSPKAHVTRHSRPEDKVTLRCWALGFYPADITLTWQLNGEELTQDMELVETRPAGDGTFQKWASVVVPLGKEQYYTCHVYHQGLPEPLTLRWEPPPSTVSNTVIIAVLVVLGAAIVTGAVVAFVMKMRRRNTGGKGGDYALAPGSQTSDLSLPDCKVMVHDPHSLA

[13] = target: HLA B*1501 (Homo sapiens, UniProt P01889, A329T/A93T/A95T/C349S/D201E/D98Y/E187L/E204Q/E69M/E70A/K202T/N87E/Q94N/R155S/R180W/S121R/S35A/S48A/V306I/V36M/Y140S/Y91S); experiment: biochemical
[14] = target: HLA B*5101 (Homo sapiens, UniProt P01889, A329T/A93T/A95T/C349S/D138N/D201E/D98Y/E187L/E204Q/E69T/G107R/I218V/K202T/L105A/L119W/N104I/Q94N/R106L/R155S/R180L/S101N/S121T/S35A/S48A/V306I/V36M/Y195H/Y91F)
[15] = target: HLA A*3001 (Homo sapiens, UniProt P04439, D140H/D185E/E176W/F33S/G80R/H175R/K168Q/R138E/R41S); experiment: biochemical
[16] = target: HLA B*0801 (Homo sapiens, UniProt P01889, A93T/A95T/D138N/E176V/E187T/K202T/Q94N/R180D/S35A/V36M/Y33D/Y91F); experiment: biochemical

## XXXXXSXXX [3064.0116]
[1]
  Normalized average relative binding affinity(ARB): 0.17
[2]
  Normalized average relative binding affinity(ARB): 0.70
[3]
  Normalized average relative binding affinity(ARB): 0.63
[4]
  Normalized average relative binding affinity(ARB): 0.80
[5]
  Normalized average relative binding affinity(ARB): 0.055
[6]
  Normalized average relative binding affinity(ARB): 0.57
[7]
  Normalized average relative binding affinity(ARB): 0.45
[8]
  Normalized average relative binding affinity(ARB): 0.51
[9]
  Normalized average relative binding affinity(ARB): 0.33
[10]
  Normalized average relative binding affinity(ARB): 0.18
[11]
  Normalized average relative binding affinity(ARB): 0.25
[12]
  Normalized average relative binding affinity(ARB): 0.70
[13]
  Normalized average relative binding affinity(ARB): 0.35
[14]
  Normalized average relative binding affinity(ARB): 0.32
[15]
  Normalized average relative binding affinity(ARB): 0.44
[16]
  Normalized average relative binding affinity(ARB): 0.052

## XXXXXTXXX [3064.0117]
[1]
  Normalized average relative binding affinity(ARB): 0.30
[2]
  Normalized average relative binding affinity(ARB): 0.55
[3]
  Normalized average relative binding affinity(ARB): 1.0
[4]
  Normalized average relative binding affinity(ARB): 0.77
[5]
  Normalized average relative binding affinity(ARB): 0.17
[6]
  Normalized average relative binding affinity(ARB): 0.84
[7]
  Normalized average relative binding affinity(ARB): 0.72
[8]
  Normalized average relative binding affinity(ARB): 0.79
[9]
  Normalized average relative binding affinity(ARB): 0.16
[10]
  Normalized average relative binding affinity(ARB): 0.32
[11]
  Normalized average relative binding affinity(ARB): 0.26
[12]
  Normalized average relative binding affinity(ARB): 0.70
[13]
  Normalized average relative binding affinity(ARB): 0.55
[14]
  Normalized average relative binding affinity(ARB): 0.32
[15]
  Normalized average relative binding affinity(ARB): 0.27
[16]
  Normalized average relative binding affinity(ARB): 0.068

## XXXXXVXXX [3064.0118]
[1]
  Normalized average relative binding affinity(ARB): 0.65
[2]
  Normalized average relative binding affinity(ARB): 0.51
[3]
  Normalized average relative binding affinity(ARB): 0.63
[4]
  Normalized average relative binding affinity(ARB): 1.0
[5]
  Normalized average relative binding affinity(ARB): 0.26
[6]
  Normalized average relative binding affinity(ARB): 0.60
[7]
  Normalized average relative binding affinity(ARB): 0.72
[8]
  Normalized average relative binding affinity(ARB): 0.78
[9]
  Normalized average relative binding affinity(ARB): 0.34
[10]
  Normalized average relative binding affinity(ARB): 0.17
[11]
  Normalized average relative binding affinity(ARB): 0.32
[12]
  Normalized average relative binding affinity(ARB): 0.59
[13]
  Normalized average relative binding affinity(ARB): 0.37
[14]
  Normalized average relative binding affinity(ARB): 0.20
[15]
  Normalized average relative binding affinity(ARB): 0.22
[16]
  Normalized average relative binding affinity(ARB): 0.077

## XXXXXWXXX [3064.0119]
[1]
  Normalized average relative binding affinity(ARB): 0.36
[2]
  Normalized average relative binding affinity(ARB): 1.0
[3]
  Normalized average relative binding affinity(ARB): 0.77
[4]
  Normalized average relative binding affinity(ARB): 0.26
[5]
  Normalized average relative binding affinity(ARB): 0.29
[6]
  Normalized average relative binding affinity(ARB): 0.44
[7]
  Normalized average relative binding affinity(ARB): 0.21
[8]
  Normalized average relative binding affinity(ARB): 0.37
[9]
  Normalized average relative binding affinity(ARB): 0.99
[10]
  Normalized average relative binding affinity(ARB): 0.18
[11]
  Normalized average relative binding affinity(ARB): 0.29
[12]
  Normalized average relative binding affinity(ARB): 0.49
[13]
  Normalized average relative binding affinity(ARB): 0.36
[14]
  Normalized average relative binding affinity(ARB): 0.10
[15]
  Normalized average relative binding affinity(ARB): 0.14
[16]
  Normalized average relative binding affinity(ARB): 0.046

## XXXXXXAXX [3064.0121]
[1]
  Normalized average relative binding affinity(ARB): 0.31
[2]
  Normalized average relative binding affinity(ARB): 0.65
[3]
  Normalized average relative binding affinity(ARB): 0.037
[4]
  Normalized average relative binding affinity(ARB): 0.20
[5]
  Normalized average relative binding affinity(ARB): 0.032
[6]
  Normalized average relative binding affinity(ARB): 0.37
[7]
  Normalized average relative binding affinity(ARB): 0.0045
[8]
  Normalized average relative binding affinity(ARB): 0.0014
[9]
  Normalized average relative binding affinity(ARB): 0.22
[10]
  Normalized average relative binding affinity(ARB): 0.45
[11]
  Normalized average relative binding affinity(ARB): 0.17
[12]
  Normalized average relative binding affinity(ARB): 0.12
[13]
  Normalized average relative binding affinity(ARB): 0.69
[14]
  Normalized average relative binding affinity(ARB): 0.24
[15]
  Normalized average relative binding affinity(ARB): 0.12
[16]
  Normalized average relative binding affinity(ARB): 0.44

## XXXXXXCXX [3064.0122]
[1]
  Normalized average relative binding affinity(ARB): 0.17
[2]
  Normalized average relative binding affinity(ARB): 0.28
[3]
  Normalized average relative binding affinity(ARB): 0.048
[4]
  Normalized average relative binding affinity(ARB): 0.11
[5]
  Normalized average relative binding affinity(ARB): 0.024
[6]
  Normalized average relative binding affinity(ARB): 0.11
[7]
  Normalized average relative binding affinity(ARB): 0.082
[8]
  Normalized average relative binding affinity(ARB): 0.094
[9]
  Normalized average relative binding affinity(ARB): 0.18
[10]
  Normalized average relative binding affinity(ARB): 0.16
[11]
  Normalized average relative binding affinity(ARB): 0.12
[12]
  Normalized average relative binding affinity(ARB): 0.094
[13]
  Normalized average relative binding affinity(ARB): 0.78
[14]
  Normalized average relative binding affinity(ARB): 0.28
[15]
  Normalized average relative binding affinity(ARB): 0.21
[16]
  Normalized average relative binding affinity(ARB): 0.44

## XXXXXXDXX [3064.0123]
[1]
  Normalized average relative binding affinity(ARB): 0.049
[2]
  Normalized average relative binding affinity(ARB): 0.66
[3]
  Normalized average relative binding affinity(ARB): 0.053
[4]
  Normalized average relative binding affinity(ARB): 0.026
[5]
  Normalized average relative binding affinity(ARB): 0.022
[6]
  Normalized average relative binding affinity(ARB): 0.37
[7]
  Normalized average relative binding affinity(ARB): 0.066
[8]
  Normalized average relative binding affinity(ARB): 0.051
[9]
  Normalized average relative binding affinity(ARB): 0.12
[10]
  Normalized average relative binding affinity(ARB): 0.28
[11]
  Normalized average relative binding affinity(ARB): 0.051
[12]
  Normalized average relative binding affinity(ARB): 0.030
[13]
  Normalized average relative binding affinity(ARB): 0.10
[14]
  Normalized average relative binding affinity(ARB): 0.15
[15]
  Normalized average relative binding affinity(ARB): 0.014
[16]
  Normalized average relative binding affinity(ARB): 0.072

## XXXXXXEXX [3064.0124]
[1]
  Normalized average relative binding affinity(ARB): 0.29
[2]
  Normalized average relative binding affinity(ARB): 0.96
[3]
  Normalized average relative binding affinity(ARB): 0.060
[4]
  Normalized average relative binding affinity(ARB): 0.092
[5]
  Normalized average relative binding affinity(ARB): 0.092
[6]
  Normalized average relative binding affinity(ARB): 0.42
[7]
  Normalized average relative binding affinity(ARB): 0.15
[8]
  Normalized average relative binding affinity(ARB): 0.043
[9]
  Normalized average relative binding affinity(ARB): 0.36
[10]
  Normalized average relative binding affinity(ARB): 0.26
[11]
  Normalized average relative binding affinity(ARB): 0.14
[12]
  Normalized average relative binding affinity(ARB): 0.13
[13]
  Normalized average relative binding affinity(ARB): 0.49
[14]
  Normalized average relative binding affinity(ARB): 0.37
[15]
  Normalized average relative binding affinity(ARB): 0.050
[16]
  Normalized average relative binding affinity(ARB): 0.32
